# Measured values as given in patent US20180280465A1 (EVER Neuro Pharma GmbH, priority 2015, published 2018).
# Where two headings read alike, the source gives them in different places.
# Columns and labels:
# [1] = in NaCl solution; cited from earlier work
# [2] = cited from earlier work
# [3] = tested on: NIH/3T3 murine fibroblasts; experiment: Resazurin-fibroblast-assay for assessment of cytotoxicity
# Protocol: The vitality of the fibroblasts was detected with the Resazurin Reagent (Resazurin sodium salt powder (Sigma Aldrich R7017-1G)). Vital and metabolically active cells reduce the non-fluorescent dye resazurin to the fluorescent dye resorufin by using NADH. The amount of fluorescence is proportional to the amount of vital cells. The fluorescence intensity at 535 nm (excitation)/595 nm (emission) is detected with a plate reader.
# Cells were cultured in a culture medium (DMEM high glucose) containing 10% FBS, 2 mM L-glutamine and 100 μg/ml penicilline/streptomycin under standard cell culture conditions (37° C., 5% CO2).
# The cells were then incubated with the respective solutions in the incubator for 4 h, 18 h, or 24 h (depending on the assay protocol). For every time point a separate 96-well plate was prepared. • Day 1 or 2: Readout—Determination of the fluorescence intensity (resazurin readout): For the determination of the fluorescence intensity (resazurin readout) the medium (100 μl/well) was removed and 100 μl/well resazurin was added (final concentration 0.5 mM; 2.2 ml resazurin stock solution prepared in PBS with a final concentration of 2.5 mM was diluted in 8.8 ml proliferation medium). In the wells serving for the blank control (no cells) 100 μl/well resazurin (0.5 mM) was added. The 96-well plate was then incubated for 1 h in the incubator. The fluorescence intensity was then detected at 535 nm (excitation)/595 nm (emission) with a plate reader.
smiles,measurement,setting,value
"CN1CCc2cccc3c2[C@H]1Cc1ccc(O)c(O)c1-3 [apomorphine, (6aR)-6-methyl-5,6,6a,7-tetrahydro-4H-dibenzo[de,g]quinoline-10,11-diol]",solubility,[1],< 10000 µg/mL
same,duration of effect (mean),[2]; single dose,40 min
same,incidence of nodule formation,"[2]; subcutaneous apomorphine infusion therapy, meta analysis",70%
same,patients terminating therapy because of irritations at the injection site,"[2]; subcutaneous infusion, within one year",70%
"N[C@@H](CCC(=O)N[C@@H](CS)C(=O)NCC(=O)O)C(=O)O [Glutathione, (2S)-2-amino-4-{[(1R)-1-[(carboxymethyl)carbamoyl]-2-sulfanylethyl]carbamoyl}butanoic acid]",effect on the toxic effect of oxoapomorphine,"[3]; NIH/3T3 cells, oxoapomorphine present",could abolish the toxic effect of oxoapomorphine
"O=C1O[C@H]([C@@H](O)CO)C(O)=C1O [Ascorbate, (5R)-[(1S)-1,2-dihydroxyethyl]-3,4-dihydroxyfuran-2(5H)-one]",effect on the toxic effect of oxoapomorphine,[3],had no beneficial effect if the oxidative degradation product oxo-apomorphine was already present in the formulation
"CC(O)CO (stereo not drawn) [α-propylene glycol, propane-1,2-diol]",influence of isotonization agent on the cytotoxic effects in the cell culture system,[3]; NIH/3T3 fibroblasts,did not have any influence (negative or positive) on the cytotoxic effects
